Results on two compounds are retold here after patent US9597531B2, “Selective, lipophilic, and long-acting beta agonist monotherapeutic formulations and methods for the cosmetic treatment of adiposity and contour bulging” (NEOTHETICS, INC., priority 2010, dated 2017).

The structures appear in SMILES notation. Read-outs that look alike come from different tables or passages of the source.

The conditions of data set [1]: compared with albuterol; cited from earlier work.
The conditions of data set [2]: minipig, in vivo.
The nature of data set [3]: Pharmacokinetics and bioavailability in minipigs after SC administration (Example 8). The class given is in vivo, Gottingen minipig. Particulars: for AUC(0-inf) / Cmax / half-life / Tmax: Gottingen, minipig, plasma, 4 ug/kg. Here is the method: Plasma concentrations of salmeterol were monitored in a male and a female Gottingen minipig after SC administration of salmeterol xinafoate. SC dose of 4 μg/kg salmeterol xinafoate was administered as a single bolus dose. […] Samples were processed to plasma by centrifugation under refrigeration and stored frozen at approximately −70° C. (±15° C.) until analysis.
Other calculations were done using Microsoft Excel® XP. The bioanalytical and pharmacokinetic data were reported to 3 significant figures.

Data set [4] concerns subcutaneous fat thickness. Kind of data set: Subcutaneous fat thickness by 2D-ultrasound (Example 7).
For the next data set, the system named is inguinal fat pad. The experiment in a line: Inguinal fat pad weight after SC injection into the rat inguinal fat pad (Example 6). Type of data set: in vivo, Sprague-Dawley rats.
Setting [5] is: SC single site 4 μg/kg, female 2-0623.
[6] abbreviates: SC single site 4 μg/kg, male 1-0771.

Experimental for inguinal fat pad: Mature male Sprague-Dawley rats weighing approximately 500 g were lightly anesthetized with 4% isoflurane. Test article injections (drug vehicle, different doses of salmeterol xinafoate) were injected SC into the right inguinal fat pad in a volume of 0.4 mL. An equal volume of drug vehicle was injected into the left inguinal fat pad. […] Approximately 24 hours after the last injection, rats were anesthetized, sacrificed and the right and left fat pads harvested and weighed. The change in fat pad weight (Right vs. Left) was calculated and expressed as a percent change in inguinal fat pad weight (% change IFP=(Right side−Left side)×100/Left side).

Turning to `OCc1cc(C(O)CNCCCCCCOCCCCc2ccccc2)ccc1O` (racemic) [Salmeterol, ±2-(hydroxymethyl)-4-[1-hydroxy-2-[6-(4-phenylbutoxy)hexylamino]ethyl]-phenol], the “lipophilicity relative to albuterol” value in data set [1] was “at least 10,000 times”. Further, the “salmeterol partition ratio (average plasma Cmax subcutaneous / average plasma Cmax intravenous)” value in data set [2] (both, Gottingen) turned out to be 0.1. For the same compound, the Cmax was 0 ng/mL in data set [2] (0.004 ug/kg), 0.433 ng/mL in data set [3] (setting [5]) and 0.564 ng/mL in data set [3] (setting [6]). Moreover, in data set [2] (sc), the plasma concentrations observed result is reported as “Scarce or no plasma concentrations”. In addition, the AUC(0-inf) came out at 1.67 ng·h/mL in data set [3] (setting [5]) and 2.26 ng·h/mL in data set [3] (setting [6]). In addition, the half-life was 494 min in data set [3] (setting [5]) and 684 min in data set [3] (setting [6]). The Tmax in data set [3] (SC single site 4 μg/kg, female 2-0623, read-out: Tmax) came out at 30 min; in data set [3] (SC single site 4 μg/kg, male 1-0771, read-out: Tmax), 20 min. Besides, the tlast in data set [3] (setting [5]) and in data set [3] (setting [6]) was 24.0 h each time.

As for `OCc1cc(C(O)CNCCCCCCOCCCCc2ccccc2)ccc1O` (stereo not shown) [salmeterol xinafoate], the “evaluation of the injection sites” value in data set [4] (SC twice per week, 0.05, 0.5 or 5 μg per site) is on record as “did not reveal any adverse reactions”. Moreover, the “fat thickness (2D-ultrasound)” value in data set [4] (SC twice per week, FIG. 2) is recorded as “dose-related changes in fat thickness”. Moreover, the “increase of fat thickness” value in data set [4] (highest dose (5 ng)) is reported as “approximately 3%”. Besides, in data set [4] (lowest doses (0.05 and 0.5 ng)), the “reduction of total fat thickness” value is reported as 7-9%. Further, in the data set on inguinal fat pad (0.1, 1, 10 or 100 μg SC into fat pad on 3 consecutive days, right vs left (vehicle) pad, FIG. 1), the “change in inguinal fat pad weight” value is given as “dose-related reduction in fat pad weight”. The “staining and histological evaluation of the tissue” value in the data set with inguinal fat pad (inguinal fat pad after SC injection, data not shown) was “reduction in fat cell number and size”. Moreover, the “absorption following SC administration” value in data set [3] (SC 4 μg/kg) is given as “rapidly absorbed”. Moreover, the Tmax in data set [3] (both sexes, SC 4 μg/kg, male and female, read-out: Tmax values) fell in the range of 20 to 30 min.

For orientation: Cmax means the maximum level reached in the sampled fluid or tissue. Usually AUC(0-inf) stands for the area under the concentration-time curve extrapolated to infinity. Read a low AUC(0-inf) as low exposure. For orientation: half-life means the time in which the quantity being followed falls by half. Read a low half-life as rapid decline. The term Tmax denotes the time at which the peak concentration occurs.
